“Also recorded” adds a separate entry of the source.
How the values were obtained:
mTOR (S2448) = assay: RPA of fixed versus snap frozen samples; conditions: cellular equivalents printed on reverse phase protein microarrays, FIG. 7
Text: We compared phosphoproteins from real time, room temperature shipping conditions in a methanol:water or ethanol:water fixative to samples that were snap frozen.

AKT Thr308 = assay: RPA phosphoprotein level after 24 h storage of tumor needle samples in preservatives; conditions: 24 h in preservative at 4° C., relative normalized RPA intensity
Method: (§1) The RPA format, originated by the present inventors and collaborators (see, e.g., Paweletz et al. (2001) Oncogene 20, 1981-1989), immobilizes an individual test sample in a miniature dilution curve such that an array contains hundreds of different patient samples, treatments, or time points. In the RPA format, each array is incubated with one detection protein (e.g. anti-peptide antibody), and a single analyte endpoint is measured and directly compared across multiple samples. Briefly, the lysates are printed on glass backed nitrocellulose array slides (FAST Slides Whatman, Florham Park, N.J. or ONCYTE slides Grace BioLabs, Bend, Oreg.) using a robotic array printing device (GMS 417 arrayer (Affymetrix, Santa Clara, Calif. or Aushon 2470, Aushon Biosystems, Burlington, Mass. equipped with 125-500 μm pins). Each lysate is printed in a dilution curve representing neat, 1:2, 1:4, 1:8, 1:16 and negative control dilutions. The slides are stored with desiccant (Drierite, W. A. Hammond, Xenia, Ohio) at −20° C. prior to immunostaining.
(§2) Immunostaining is performed on an automated slide stainer per manufacturer's instructions (Autostainer CSA kit, Dako, Carpinteria, Calif.). Each slide is incubated with a single primary antibody at room temperature for 30 minutes. Polyclonal primary antibodies can be, e.g.: GSK3α/β Tyr279/216 (Invitrogen-Biosource, Carlsbad, Calif.), BCL-2, HIF-1α (BD, Franklin Lakes, N.J.), 4EBP1, FKHR ser256, eIF4E, eIF4E ser209, eIF4G, eIF4G ser1108, IGFR-β, IRS-1, IRS-2, IRS-1 ser612, SGK, Bak, Bax, BAD, BAD ser112, BAD ser136, BAD ser155, B-Raf, mTOR, mTOR ser2448, p70S6 Thr389, p70S6 kinase, p70S6 ser371, S6 kinase ser240/244, Akt, Akt ser473, Akt Thr308, 4EBP1 ser65, 4EBP1 ser70, and 4EBP1 Thr37/46 (Cell Signaling Technology, Danvers, Mass.). A negative control slide is incubated with antibody diluent. Secondary antibody can be goat anti-rabbit IgG H+L (1:5000) (Vector Labs, Burlingame, Calif.).
(§3) Each array is scanned, spot intensity analyzed, data normalized, and a standardized, single data value can be generated for each sample on the array (Image Quant v5.2, GE Healthcare, Piscataway, N.J.) or MicroVigene v2.8, Vigene Tech, Billerica, Mass.). Spot intensity is integrated over a fixed area. Local area background intensity is calculated for each spot with the unprinted adjacent slide background. […] The Ward method for two-way hierarchical clustering can be performed using JMP v5.0 (SAS Institute, Cary N.C.). Wilcoxon two-sample rank sum test can be used to compare values between two groups. P values less than 0.05 are considered significant. When one cannot assume a normal distribution of the variables, non-parametric methods are used. Kaplan-Meier (log-rank) survival estimates for univariate survival analysis can be used.
(§4) Briefly, tumor tissues from gastrinoma/liver, mesothelioma and parathyroid tumors were sampled by five needle passes and placed into the preservatives listed in Table 5. […] Immediate lysis and denaturation of the cellular proteins were accomplished by standard Pierce Tissue Protein Extraction Buffer (T-PER), with additional SDS, denaturing reagents, and detergents. The cell samples were stored 24 h in the listed preservatives at 4° C. and then the listed phosphoprotein endpoints were measured. […] Some values dropped to zero while others are markedly elevated compared to the freshly lysed cell baseline. […] They were unable to stabilize the phosphorylation state of key signal proteins over a storage period of 24 hours, which is a typical time delay for cell or tissue shipment. Numbers in the table are relative normalized intensity values using the RPA technology described herein.

AKT ser473 = assay: as above; conditions: 24 h in preservative at 4° C., relative normalized RPA intensity
Method: as §1, §2, §3, §4

CC3 Asp175 = assay: as above; conditions: 24 h in preservative at 4° C., relative normalized RPA intensity
Method: as §1, §2, §3, §4

CREB ser133 = assay: as above; conditions: 24 h in preservative at 4° C., relative normalized RPA intensity
Method: as §1, §2, §3, §4

EGFR Y1148 = assay: as above; conditions: 24 h in preservative at 4° C., relative normalized RPA intensity
Method: as §1, §2, §3, §4

ERK T202/Y204 = assay: as above; conditions: 24 h in preservative at 4° C., relative normalized RPA intensity
Method: as §1, §2, §3, §4

GSK3ab ser21/9 = assay: as above; conditions: 24 h in preservative at 4° C., relative normalized RPA intensity
Method: as §1, §2, §3, §4

IKappa-Ba ser32 = assay: as above; conditions: 24 h in preservative at 4° C., relative normalized RPA intensity
Method: as §1, §2, §3, §4

IRS-1 ser612 = assay: as above; conditions: 24 h in preservative at 4° C., relative normalized RPA intensity
Method: as §1, §2, §3, §4

p38 T180/182 = assay: as above; conditions: 24 h in preservative at 4° C., relative normalized RPA intensity
Method: as §1, §2, §3, §4

phosphoproteins = assay: Overall phosphoprotein preservation of FNA / tumor needle samples stored 24 h at 4° C.; conditions: compared to directly lysed cell baseline
Method: Fine Needle Aspirate (FNA) samples were stored for 24 hours at 4° C. in each of the chemicals/chemical solutions. The cellular samples were further processed for reverse phase protein microarray analysis. […] Each set of 4 horizontal spots by 2 vertical spots represent an original and its replicate sample, printed on the array in two-fold dilutions, for each FNA sample. The dilution series represents undiluted, 1:2, 1:4 and 1:8 dilutions of each sample.
A variety of types of tumor tissues were incubated in a series of conventional preservatives to determine if the preservatives were able to stabilize selected phosphoproteins.

EGFR Y1173 = assay: Phosphorylation over time with phosphatase inhibitor in cell culture model; assay type: cell-based; conditions: living cells exposed to phosphatase inhibitor, FIG. 10A
Method: (§5) The phosphorylation rises rapidly to a high level in less than 40 minutes, which is followed by cell death.
(§6) These continuing metabolic processes present problems for the preservation of phosphoproteins in a sample. For example, the inventors have discovered that the addition of a phosphatase inhibitor alone, designed to block the removal of protein phosphate groups by endogenous phosphatases, can cause unchecked and highly abnormal upward accumulation of abnormal levels of phosphoproteins, reaching a lethal level.

[1] = tested on: cultured cell line (A549); assay: as above; assay type: cell-based
Method: as §5, §6

[2] = Gastrinoma/liver tumor, Lysis Buffer = frozen immediately after lysis
[3] = Parathyroid tumor, Lysis Buffer = frozen immediately after lysis

## CO [20-50% methanol in water, methanol]
mTOR (S2448)
  level of mTOR (S2448) phosphorylation, fixed versus snap frozen: equivalence

## CCO [70% ethanol, ethanol]
AKT Thr308; [2]
  AKT Thr308 Normalized data: 0.00
AKT Thr308; Mesothelioma
  AKT Thr308 Normalized data: 15.15
AKT Thr308; [3]
  AKT Thr308 Normalized data: 18.57
AKT ser473; [2]
  AKT ser473 Normalized data: 0.00
AKT ser473; Mesothelioma
  AKT ser473 Normalized data: 10.94
AKT ser473; [3]
  AKT ser473 Normalized data: 7.18
CC3 Asp175; [2]
  CC3 Asp175 Normalized data: 5.09
CC3 Asp175; Mesothelioma
  CC3 Asp175 Normalized data: 15.92
CC3 Asp175; [3]
  CC3 Asp175 Normalized data: 19.16
CREB ser133; [2]
  CREBser133 Normalized data: 103.07
CREB ser133; Mesothelioma
  CREBser133 Normalized data: 53.05
CREB ser133; [3]
  CREBser133 Normalized data: 67.91
EGFR Y1148; [2]
  EGFR Y1148 Normalized data: 39.95
EGFR Y1148; Mesothelioma
  EGFR Y1148 Normalized data: 30.71
EGFR Y1148; [3]
  EGFR Y1148 Normalized data: 47.58
ERK T202/Y204; [2]
  ERK T202/Y204 Normalized data: 11.51
ERK T202/Y204; Mesothelioma
  ERK T202/Y204 Normalized data: 30.74
ERK T202/Y204; [3]
  ERK T202/Y204 Normalized data: 37.27
GSK3ab ser21/9; [2]
  GSK3ab ser21/9 Normalized data: 19.01
GSK3ab ser21/9; Mesothelioma
  GSK3ab ser21/9 Normalized data: 31.87
GSK3ab ser21/9; [3]
  GSK3ab ser21/9 Normalized data: 60.83
IKappa-Ba ser32; [2]
  IKappa-Ba ser32 Normalized data: 28.36
IKappa-Ba ser32; Mesothelioma
  IKappa-Ba ser32 Normalized data: 25.09
IKappa-Ba ser32; [3]
  IKappa-Ba ser32 Normalized data: 32.97
IRS-1 ser612; [2]
  IRS-1 ser612 Normalized data: 19.74
IRS-1 ser612; Mesothelioma
  IRS-1 ser612 Normalized data: 12.16
IRS-1 ser612; [3]
  IRS-1 ser612 Normalized data: 15.92
p38 T180/182; [2]
  p38 T180/182 Normalized data: 27.50
p38 T180/182; Mesothelioma
  p38 T180/182 Normalized data: 49.07
p38 T180/182; [3]
  p38 T180/182 Normalized data: 45.63
phosphoproteins
  preservation of phosphoproteins overall: significant, reproducible degradation of the phospho endpoints

## pervanadate
EGFR Y1173
  time for EGFR Y1173 phosphorylation to rise to a high level: less than 40 minutes
[1]; A549 cells, FIG. 10
  phosphorylation of phospho-endpoints over time: hyperphosphorylation over time; also recorded: large surge of phosphorylation
[1]; living cells exposed to phosphatase inhibitor, FIG. 10A
  fate of cells after phosphorylation surge: cell death

— US9029076B2, “Tissue preservation and fixation method” (George Mason Research Foundation, Inc., priority 2006, dated 2015)
